# Values quoted from earlier work, collected in PMC2787808 (Peptides, 2009).
# Assays:
# HT-29 cells = conditions: ref [2]
# [1] = test system: G17-Gly binding sites on DLD-1 cells; conditions: previous study; ref [11]
substance,measurement,setting,value
pGlu-Gly-Pro-Trp-Leu-(Glu)5-Ala-Tyr [G17(1–12)],Stimulation of proliferation of HT-29 cells,HT-29 cells,stimulates nonbiphasic proliferation
same,Binding sites and affinity on DLD-1 cells,[1],binds to two sites
